Consider 1 molecule from BindingDB's records for PubMed 39128361 (Xi'an Jiaotong University).

A short description of the assay: Inhibition of pERK (unknown origin).

Each structure is given as a SMILES string.

A word on the IC50: it is the concentration that inhibits the measured activity by half. High values mean weaker potency in that assay, low ones greater potency in that assay. Take `CC(=O)N1CCN(c2ccc(Nc3nccc(-c4sc(C(C)C)nc4-c4cccc(NS(=O)(=O)c5ccccc5)c4)n3)cn2)CC1`: the IC50 came to 7 nM. In other words, the single-digit nanomolar range.
